Columns and labels:
Sclerotinia sclerotiorum = Sclerotinia sclerotiorum (cottony rot, white mold), liquid culture growth inhibition; format: cell-based; settings: PDB nutrient broth, 24° C., 72 hrs, 620 nm, vs untreated control
Procedure: (§1) Mycelial fragments of the fungus prepared from a fresh liquid culture were directly mixed into nutrient broth (PDB potato dextrose broth). A DMSO solution of the test compounds was placed into a microtiter plate (96-well format) and the nutrient broth containing the fungal spores was added to it. The test plates were incubated at 24° C. and the inhibition of growth was determined photometrically after 72 hrs at 620 nm.

[1] = system: Botryotinia fuckeliana syn. Botrytis cinerea; assay: Botryotinia fuckeliana syn. Botrytis cinerea (gray mould), liquid culture growth inhibition; format: cell-based; settings: PDB nutrient broth, 24° C., 72 hrs, photometric, vs untreated control
Procedure: as §1, with “Conidia” for “Mycelial fragments”, “fungus” for “fungus prepared”, “cryogenic storage” for “a fresh liquid culture”, “hrs.” for “hrs at 620 nm.”

[2] = system: Glomerella lagenarium syn Colletotrichum lagenarium; assay: Glomerella lagenarium syn. Colletotrichum lagenarium (anthracnose), liquid culture growth inhibition; format: cell-based; settings: Colletotrichum orbiculare, PDB nutrient broth, 24° C., 72 hrs, 620 nm, vs untreated control
Procedure: as §1, with “Conidia” for “Mycelial fragments”, “fungus” for “fungus prepared”, “cryogenic storage” for “a fresh liquid culture”

[3] = system: Botryotinia fuckeliana syn. Botrytis cinerea; assay: Botryotinia fuckeliana syn. Botrytis cinerea (grey mold on tomato), tomato plants; format: in vivo; settings: tomato plants cv. Roter Gnom, inoculated two days after application, leaf area covered by disease 5-6 days after application
Procedure: 4-week old tomato plants cv. Roter Gnom are treated sprayed in a spray chamber with the formulated test compound diluted in water. The test plants are inoculated by spraying them with a spore suspension two days after application. The inoculated test plants are incubated at 20° C. and 95% rh in a greenhouse and the percentage leaf area covered by disease is assessed when an appropriate level of disease appears on untreated check plants (5-6 days after application).

Pyrenophora teres = Pyrenophora teres (net blotch of barley), barley leaf segments, preventive; format: in vivo; settings: foliar, 96 h, assessed 4 dpi, vs untreated control
Procedure: (§2) Barley leaf segments are placed on agar in multiwell plates (24-well format) and sprayed with test solutions. After drying, the leaf disks are inoculated with a spore suspension of the fungus. After appropriate incubation, the activity of a compound is assessed 4 dpi (days after inoculation) as preventive fungicidal activity.

[4] = system: Phaeosphaeria nodorum syn. Septoria nodorum; assay: Phaeosphaeria nodorum syn. Septoria nodorum (glume blotch of wheat), wheat leaf segments, preventive; format: in vivo; settings: Parastagonospora nodorum, foliar, 96 h, assessed 4 dpi, vs untreated control
Procedure: as §2, with “Wheat” for “Barley”, “incubation” for “incubation,”
The following compounds from Table T1 gave at least 80% control of Phaeosphaeria nodorum at 200 ppm when compared to untreated control under the same conditions, which sowed extensive disease development: • 1.1, 1.3, 1.7, 1.14, 1.39, 1.41, 1.86, 1.87, 1.92, 1.94, 1.95.

Alternaria solani = Alternaria solani (early blight of tomato), tomato leaf disks, preventive; format: in vivo; settings: foliar, 96 h, assessed 4 dpi, vs untreated control
Procedure: Tomato leaf disks are placed on water agar in multiwell plates (24-well format) and sprayed with test solutions. After drying, the leaf disks are inoculated with a spore suspension of the fungus. After appropriate incubation the activity of a compound is assessed 4 dpi (days post inoculation) as preventive fungicidal activity.

[5] = system: Monographella nivalis syn. Microdochium nivale, Fusarium nivale; assay: Monographella nivalis syn. Microdochium nivale (snow mould, foot rot), liquid culture growth inhibition; format: cell-based; settings: PDB nutrient broth, 24° C., 72 hrs, 620 nm, vs untreated control
Procedure: as §1, with “Conidia” for “Mycelial fragments”, “fungus” for “fungus prepared”, “cryogenic storage” for “a fresh liquid culture”

Row | SMILES | inhibition of growth at 20 ppm (Sclerotinia sclerotiorum) [%] | inhibition of growth at 20 ppm [1] [%] | inhibition of growth at 20 ppm [2] [%] | pest or weed control at 200 ppm [3] [%] | pest or weed control at 200 ppm (Pyrenophora teres) [%] | pest or weed control at 200 ppm [4] [%] | pest or weed control at 200 ppm (Alternaria solani) [%] | inhibition of growth at 20 ppm [5] [%]
1 | Cc1cccc(Oc2cnc(C)cc2C(=O)NCCc2ccc(Cl)cc2Cl)c1 [Compound 1.2, N-[2-(2,4-dichlorophenyl)ethyl]-2-methyl-5-(3-methylphenoxy) pyridine-4-carboxamide] | ≥ 80 | ≥ 80 | ≥ 80 | – | – | – | – | –
2 | Cc1cccc(Oc2cnc(Cl)cc2C(=O)NCC(F)c2ccc(Cl)cc2Cl)c1 (stereo not shown) [Compound 1.3, 2-chloro-N-[2-(2,4-dichlorophenyl)-2-fluoro-ethyl]-5-(3-methylphenoxy) pyridine-4-carboxamide] | ≥ 80 | ≥ 80 | ≥ 80 | ≥ 50 | ≥ 80 | ≥ 80 | – | –
3 | O=C(NCC(F)c1ccc(Cl)cc1Cl)c1cc(Br)ncc1Oc1cccc(C2CC2)c1 (stereo not shown) [Compound 1.5, 2-bromo-5-(3-cyclopropyl-phenoxy)-N-[2-(2,4-dichlorophenyl)-2-fluoro-ethyl]pyridine-4-carboxamide] | ≥ 80 | ≥ 80 | ≥ 80 | ≥ 50 | – | – | – | –
4 | Cc1cncc(Oc2cccc(C3CC3)c2)c1C(=O)NCC(F)c1ccc(Cl)cc1Cl (stereo not shown) [Compound 1.7, 3-(3-cyclopropyl-phenoxy)-N-[2-(2,4-dichlorophenyl)-2-fluoro-ethyl]-5-methyl-pyridine-4-carboxamide] | ≥ 80 | ≥ 80 | ≥ 80 | ≥ 50 | – | ≥ 80 | ≥ 80 | –
5 | O=C(NCC(F)c1ccc(Cl)cc1Cl)c1c(Br)cncc1Oc1cccc(C2CC2)c1 (stereo not shown) [Compound 1.8, 3-bromo-5-(3-cyclopropyl-phenoxy)-N-[2-(2,4-dichlorophenyl)-2-fluoro-ethyl]pyridine-4-carboxamide] | ≥ 80 | ≥ 80 | ≥ 80 | ≥ 50 | – | – | – | –
6 | Cc1cc(C(=O)NCCc2ccc(Cl)cc2Cl)c(Oc2cccc(C3CC3)c2)cn1 [Compound 1.13, 5-(3-cyclopropyl-phenoxy)-N-[2-(2,4-dichlorophenyl)ethyl]-2-methyl-pyridine-4-carboxamide] | ≥ 80 | ≥ 80 | ≥ 80 | ≥ 50 | – | – | – | ≥ 80
7 | N#Cc1cc(C(=O)NCC(F)c2ccc(Cl)cc2Cl)c(Oc2cccc(C3CC3)c2)cn1 (stereo not shown) [Compound 1.20, 2-cyano-5-(3-cyclopropyl-phenoxy)-N-[2-(2,4-dichlorophenyl) 2-fluoro-ethyl]pyridine-4-carboxamide] | ≥ 80 | ≥ 80 | ≥ 80 | ≥ 50 | – | – | ≥ 80 | –
8 | O=C(NCC(F)c1ccc(Cl)cc1Cl)c1cc(Cl)ncc1Oc1cccc(C2CC2)c1F (stereo not shown) [Compound 1.70, 2-chloro-5-(3-cyclopropyl-2-fluoro-phenoxy)-N-[2-(2,4-dichlorophenyl)-2-fluoro-ethyl]pyridine-4-carboxamide] | ≥ 80 | ≥ 80 | – | ≥ 50 | – | – | – | ≥ 80
9 | CCc1cncc(Oc2cccc(C3CC3)c2)c1C(=O)NCC(F)c1ccc(Cl)cc1Cl (stereo not shown) [Compound 1.79, 3-(3-cyclopropyl-phenoxy)-N-[2-(2,4-dichlorophenyl)-2-fluoro-ethyl]-5-ethyl-pyridine-4-carboxamide] | ≥ 80 | ≥ 80 | ≥ 80 | ≥ 50 | – | – | – | ≥ 80
10 | CCc1cc(C(=O)NCC(F)c2ccc(Cl)cc2Cl)c(Oc2cccc(C3CC3)c2)cn1 (stereo not shown) [Compound 1.81, 5-(3-cyclopropyl-phenoxy)-N-[2-(2,4-dichlorophenyl)-2-fluoro-ethyl]-2-ethyl-pyridine-4-carboxamide] | ≥ 80 | ≥ 80 | ≥ 80 | ≥ 50 | – | – | – | ≥ 80
11 | C=C(C)COc1cncc(Oc2cccc(C3CC3)c2)c1C(=O)NCC(F)c1ccc(Cl)cc1Cl (stereo not shown) [Compound 1.85, 3-(3-cyclopropyl-phenoxy)-N-[2-(2,4-dichlorophenyl)-2-fluoro-ethyl]-5-(2-methylallyloxy) pyridine-4-carboxamide] | ≥ 80 | ≥ 80 | ≥ 80 | ≥ 50 | ≥ 80 | – | – | ≥ 80
12 | C#Cc1cc(C(=O)NCC(F)c2ccc(Cl)cc2Cl)c(Oc2cccc(C3CC3)c2)cn1 (stereo not shown) [Compound 1.86, 5-(3-cyclopropyl-phenoxy)-N-[2-(2,4-dichlorophenyl)-2-fluoro-ethyl]-2-ethynyl-pyridine-4-carboxamide] | – | ≥ 80 | ≥ 80 | – | – | ≥ 80 | – | ≥ 80
13 | C#CC(C)(C)Oc1cncc(Oc2cccc(C3CC3)c2)c1C(=O)NCCc1ccc(Cl)cc1Cl [Compound 1.88, 3-(3-cyclopropyl-phenoxy)-N-[2-(2,4-dichlorophenyl)ethyl]-5-(1,1-dimethylprop-2-ynoxy)pyridine-4-carboxamide] | ≥ 80 | ≥ 80 | ≥ 80 | ≥ 50 | ≥ 80 | – | – | ≥ 80
14 | C#CC(C)(C)Oc1cncc(Oc2cccc(C3CC3)c2)c1C(=O)NCC(F)c1ccc(Cl)cc1Cl (stereo not shown) [Compound 1.92, 3-(3-cyclopropyl-phenoxy)-N-[2-(2,4-dichlorophenyl)-2-fluoro-ethyl]-5-(1,1-dimethylprop-2-ynoxy)pyridine-4-carboxamide] | ≥ 80 | ≥ 80 | ≥ 80 | – | – | ≥ 80 | – | ≥ 80
15 | Cc1cncc(Oc2cccc(C3CC3)c2)c1C(=O)NC[C@H](F)c1ccc(Cl)cc1Cl [Compound 1.94, 3-(3-cyclopropyl-phenoxy)-N-[(2R)-2-(2,4-dichlorophenyl)-2-fluoro-ethyl]-5-methyl-pyridine-4-carboxamide] | ≥ 80 | ≥ 80 | ≥ 80 | – | ≥ 80 | ≥ 80 | ≥ 80 | ≥ 80
16 | O=C(NC[C@H](F)c1ccc(Cl)cc1Cl)c1c(Br)cncc1Oc1cccc(C2CC2)c1 [Compound 1.95, 3-bromo-5-(3-cyclopropyl-phenoxy)-N-[(2R)-2-(2,4-dichlorophenyl)-2-fluoro-ethyl]pyridine-4-carboxamide] | ≥ 80 | ≥ 80 | ≥ 80 | – | – | ≥ 80 | ≥ 80 | ≥ 80
17 | O=C(NCC(F)c1ccc(Cl)cc1Cl)c1c(O)cncc1Oc1cccc(C2CC2)c1 (stereo not shown) [Compound 1.96, 3-(3-cyclopropyl-phenoxy)-N-[2-(2,4-dichlorophenyl)-2-fluoro-ethyl]-5-hydroxy-pyridine-4-carboxamide] | ≥ 80 | ≥ 80 | ≥ 80 | – | – | – | – | ≥ 80
18 | COc1cc(C(=O)NCC(F)c2ccc(Cl)cc2Cl)c(Oc2cccc(C3CC3)c2)cn1 (stereo not shown) [Compound 1.98, 5-(3-cyclopropyl-phenoxy)-N-[2-(2,4-dichlorophenyl)-2-fluoro-ethyl]-2-methoxy-pyridine-4-carboxamide] | – | ≥ 80 | ≥ 80 | – | – | – | ≥ 80 | –
